Data taken from patent publication US20060166995A1, “Piperidine-n-oxide-derivatives” (ALTANA PHARMA AG, priority 2002, published 2006).

Assays:
PDE4 = assay: Inhibition of PDE4 activity (cytosol from human neutrophils, [3H]cAMP hydrolysis); assay type: biochemical; conditions: 0.5 μM cAMP, Motapizone (1 μM) included to suppress PDE3 activity
Procedure: Method for Measuring Inhibition of PDE4 Activity
PDE4 activity was determined as described by Thompson et al. (Adv Cycl Nucl Res 10: 69-92, 1979) with some modifications (Bauer and Schwabe, Naunyn-Schmiedeberg's Arch Pharmacol 311: 193-198, 1980). At a final assay volume of 200 μl (96 well microtiter plates) the assay mixture contained 20 mM Tris (pH 7.4), 5 mM MgCl2, 0.5 μM cAMP, [^3H]cAMP (about 30,000 cpm/assay), the test compound and an aliquot of cytosol from human neutrophils which mainly contains PDE4 activity as described by Schudt et al. (Naunyn-Schmiedeberg's Arch Pharmacol 344: 682-690, 1991); the PDE3-specific inhibitor Motapizone (1 μM) was included to suppress PDE3 activity originating from contaminating platelets. Serial dilutions of the compounds were prepared in DMSO and further diluted 1:100 (v/v) in the assays to obtain the desired final concentrations of the inhibitors at a DMSO concentration of 1 % (v/v) which by itself only slightly affected PDE4 activity.
After preincubation for 5 min at 37° C., the reaction was started by the addition of substrate (cAMP) and the assays were incubated for further 15 min at 37° C. 50 μl of 0.2 N HCl was added to stop the reaction and the assays were left on ice for about 10 min. Following incubation with 25 μg 5′-nucleotidase (Crotalus atrox snake venom) for 10 min at 37° C., the assays were loaded on QAE Sephadex A-25 (1 ml bed volume). The columns were eluted with 2 ml of 30 mM ammonium formiate (pH 6.0) and the eluate was counted for radioactivity. Results were corrected for blank values (measured in the presence of denatured protein) which were below 5% of total radioactivity. […] The IC50-values for the compounds according to the invention for the inhibition of the PDE4 activity were determined from the concentration-inhibition curves by nonlinear-regression.
The inhibitory values determined for the compounds according to the invention follow from the following table A, which the numbers of the compounds correspond to the numbers of the examples.

Row | melting point | SMILES | Inhibition of PDE4 acitivity [measured as −logIC50 (mol/l)] (PDE4)
1 | 176 to 177 °C | COc1ccc(C2=NN(C3CC[N+]([O-])(CC(N)=O)CC3)C(=O)C3CCCCC23)cc1OC (stereo not drawn) [compound 3] | 7.5
2 | 130 to 132 °C | COc1ccc(C2=NN(C3CC[N+]([O-])(CC(=O)NC(C)C)CC3)C(=O)C3CC=CCC23)cc1OC [compound 2, 2-{4-[(4aS,8aR)-4-(3,4-Dimethoxy-phenyl)-1-oxo-4a,5,8,8a-tetrahydro-1H-phthalazin-2yl]-1-oxy-piperidin-1-yl}-N-isopropyl-acetamide] | 9.3
3 | 159 to 161 °C | COc1ccc(C2=NN(C3CC[N+]([O-])(CC(N)=O)CC3)C(=O)C3CC=CCC23)cc1OC [compound 1, 2-{4-[(4aS,8aR)-4-(3,4-Dimethoxy-phenyl)-1-oxo-4a,5,8,8a-tetrahydro-1H-phthalazin-2-yl]-1-oxy-piperidin-1-yl}-acetamide] | 8.31
